Results taken from PMC6130714, “The α-amylase and α-glucosidase inhibitory activities of the dichloromethane extracts and constituents of Ferulago bracteata roots” (Pharmaceutical Biology, 2017).
Values after ≈ are worked out from the molar mass of the structure shown. Where two headings read alike, the source gives them in different places.

Legend:
α-amylase = test: α-Amylase inhibitory activity (starch, dinitrosalicylic acid); format: biochemical; details: concentration 1 mg/mL
Description: α-Amylase inhibitory activity was established in accordance with the reported method (Nampoothiri et al. [2011]) with slight modifications. One percent starch solution (100 µL) in 20 mM sodium phosphate buffer (pH 6.9 with 6 mM sodium chloride) and sample solutions (100 µL) were incubated at 25 °C for 10 min in 24-well microplate. After incubation, 100 µL α-amylase solution (0.5 mg/mL) was added to each well and the reaction mixtures were incubated at 25 °C for 10 min. In order to stop the reaction after the incubation, dinitrosalicylic acid color reagent (200 µL) was added and then the microplate was incubated in a boiling water bath for 5 min and cooled at room temperature. 50 µL was taken from each well and then was added to 96-well microplate. The reaction mixture was diluted by adding 200 µL distilled water and absorbance was measured at 540 nm. Each assay for all samples was carried out in triplicate. Percentage inhibitions of all samples were calculated using the equation at following: Inhibition %=1-ΔAsample /ΔAcontrol×100
All results are expressed as mean ± SE and differences between means were statistically analyzed using one-way analysis of ANOVA followed by Bonferroni’s complementary analysis, with p < 0.05 considered to indicate statistical significance.

α-Glucosidase [1] = test: α-Glucosidase inhibitory activity (p-NPG substrate, 96-well plate); format: biochemical; details: for α-Glucosidase inhibition (%): mean of three replicates
Description: α-Glucosidase inhibitory activity was established by using a 96-well microtiter plate in accordance with the described method (Tao et al. […] Samples were dissolved in dimethyl sulfoxide (DMSO) and all samples (20 µL) together with the enzyme solution (20 µL) were mixed in the plate. Afterwards, the substrate (40 µL) was added for initiation of the reaction and the mixture was incubated at 37 °C for 40 min. After incubation is complete, 0.2 M sodium carbonate (80 µL) in phosphate buffer (pH 6.8) was added to all wells in order to quench the reaction. The amount of released p-nitrophenol (pNP) was measured at 405 nm using a 96-well microplate reader. Each assay for all samples was carried out in triplicate. […] All results are expressed as mean ± SE and differences between means were statistically analyzed using one-way analysis of ANOVA followed by Bonferroni’s complementary analysis, with p < 0.05 considered to indicate statistical significance.

α-Glucosidase [2] = details: cited from earlier work; for α-glucosidase inhibitory activity (in words): compared to acarbose, ref Luo et al. [2012]

| α-Glucosidase inhibition (%) (α-Glucosidase [1]; concentration 2000 µg/mL) | α-Glucosidase inhibition (%) (α-Glucosidase [1]; concentration 5000 µg/mL) | IC50 value (α-glucosidase) (α-Glucosidase [1]) [µg/mL] | times more effective than acarbose against α-glucosidase (α-Glucosidase [1]; ratio of IC50 values vs acarbose) [times] | SMILES | α-amylase inhibition (α-amylase) [%] | α-glucosidase inhibitory activity (in words) (α-Glucosidase [2]) | α-Glucosidase inhibition (%) (α-Glucosidase [2]; at 1000 µg/mL, ref Shalaby et al. [2014]) | α-glucosidase IC50 value (α-Glucosidase [2]; at 0.5 mg/mL, ref Ayyasamy & Rajamanickam 2015) [µg/mL] |
| --- | --- | --- | --- | --- | --- | --- | --- | --- |
| 39.71 ± 2.44 | 42.26 ± 0.43 | 6120 (≈ 28.3 mM) |  | COc1c2ccoc2cc2oc(=O)ccc12 [Bergapten, bergapten] |  | too low to compare to that of acarbose |  |  |
| 64.93 ± 2.06 | 94.57 ± 0.05 | 420 (≈ 1.2 mM) | 11 | CC(C)(OC(=O)c1ccccc1)[C@@H]1Cc2cc3ccc(=O)oc3cc2O1 [Felamidin, felamidin] |  |  |  |  |
| 7.84 ± 0.71 | 12.30 ± 0.36 | 20010 (≈ 57.8 mM) |  | CC(C)=CC(=O)OC(Cc1cc2ccc(=O)oc2cc1O)C(C)(C)O (centres unmarked) [Grandivitinol, grandivitinol] |  |  |  |  |
| 84.31 ± 1.72 | 93.31 ± 0.29 | 950 (≈ 3.89 mM) |  | COc1ccc2ccc(=O)oc2c1CC=C(C)C [Osthole, osthole] |  |  |  |  |
| 66.86 ± 0.37 | 77.22 ± 0.44 |  |  | CC(C)(O)C(Cc1cc2ccc(=O)oc2cc1O)OC(=O)c1ccccc1 (centres unmarked) [Peucedanol-2'-benzoate, peucedanol-2′-benzoate] |  |  |  |  |
| 51.95 ± 0.01 | 68.23 ± 0.39 | 1860 (≈ 5.66 mM) |  | CC(C)=CC(=O)OC(C)(C)C1Cc2cc3ccc(=O)oc3cc2O1 (centres unmarked) [Prantschimgin, prantschimgin] |  |  |  |  |
| 81.58 ± 1.15 | 87.95 ± 1.07 | 890 (≈ 3.64 mM) |  | COc1cc2oc(=O)ccc2cc1CC=C(C)C [Suberosin, suberosin] |  |  |  |  |

| SMILES | α-Glucosidase inhibition (%) (α-Glucosidase [1]; concentration 2000 µg/mL) | α-Glucosidase inhibition (%) (α-Glucosidase [1]; concentration 5000 µg/mL) | IC50 value (α-glucosidase) (α-Glucosidase [1]) [µg/mL] | times more effective than acarbose against α-glucosidase (α-Glucosidase [1]; ratio of IC50 values vs acarbose) [times] | α-amylase inhibition (α-amylase) [%] | α-glucosidase inhibitory activity (in words) (α-Glucosidase [2]) | α-Glucosidase inhibition (%) (α-Glucosidase [2]; at 1000 µg/mL, ref Shalaby et al. [2014]) | α-glucosidase IC50 value (α-Glucosidase [2]; at 0.5 mg/mL, ref Ayyasamy & Rajamanickam 2015) [µg/mL] |
| --- | --- | --- | --- | --- | --- | --- | --- | --- |
| C[C@H]1O[C@H](O[C@H]2[C@H](O)[C@@H](O)[C@@H](O[C@H]3[C@H](O)[C@@H](O)C(O)O[C@@H]3CO)O[C@@H]2CO)[C@H](O)[C@@H](O)[C@@H]1N[C@H]1C=C(CO)[C@@H](O)[C@H](O)[C@H]1O (some centres unmarked) [Acarbose, acarbose, reference compound] | 29.43 ± 1.71 | 50.81 ± 2.51 |  |  | 82.28 |  |  |  |
| CC(C)=CCOc1c2occc2cc2ccc(=O)oc12 [Imperatorin, imperatorin] | 63.07 ± 0.69 | 88.97 ± 0.88 | 1230 (≈ 4.55 mM) |  |  | too low to compare to that of acarbose | 69.66 ± 3.67 |  |
| O=c1ccc2ccc(O)cc2o1 [Umbelliferone, umbelliferone] | 8.84 ± 0.02 | 10.27 ± 0.49 | 9320 (≈ 57.5 mM) |  |  |  |  | 547 |
| COc1c2occc2cc2ccc(=O)oc12 [Xanthotoxin, xanthotoxin] | 37.95 ± 8.64 | 45.76 ± 4.82 | 5380 (≈ 24.9 mM) |  |  | too low to compare to that of acarbose |  |  |
